We go through 16 molecules from ChEMBL document CHEMBL3611986, “Reversal of P-gp and BCRP-mediated MDR by tariquidar derivatives” (Eur J Med Chem, 2015).

For one data set, the system named is SW-620. Nature of the data set: Cytotoxicity against human SW620 cells assessed as cell viability after 48 hrs by MTT assay. It counts as cell-based. The conditions noted are these: SW-620, 48 h. On the technique in general: Tetrazolium assays rely on reduction of a dye to a coloured formazan, in cell work by metabolically active cells.
Data set [1] in a line: Cytotoxicity against human LCC6 cells at 200 nM after 72 hrs by SRB assay. It is filed as cell-based. Conditions: lcc6, 72 h, 0.2 µM; call rule not given here. In general terms: The SRB assay estimates cell density from bound dye.
The species named for another data set is Homo sapiens. Briefly: Inhibition of p-glycoprotein (unknown origin) expressed in High five insect cell membranes assessed as ATP hydrolysis after 20 mins by colorimetric ATPase assay.
The target of data set [2] is T1, ATP-dependent translocase ABCB1 (Homo sapiens, UniProt P08183). Briefly: Inhibition of p-glycoprotein-mediated rhodamine-123 efflux in human K562/p-gp cells after 1 hr by flow cytometry. It is filed as cell-based. (In general: In flow cytometry, cells or beads pass a laser one at a time.)
T1 sequence (P08183 whole entry): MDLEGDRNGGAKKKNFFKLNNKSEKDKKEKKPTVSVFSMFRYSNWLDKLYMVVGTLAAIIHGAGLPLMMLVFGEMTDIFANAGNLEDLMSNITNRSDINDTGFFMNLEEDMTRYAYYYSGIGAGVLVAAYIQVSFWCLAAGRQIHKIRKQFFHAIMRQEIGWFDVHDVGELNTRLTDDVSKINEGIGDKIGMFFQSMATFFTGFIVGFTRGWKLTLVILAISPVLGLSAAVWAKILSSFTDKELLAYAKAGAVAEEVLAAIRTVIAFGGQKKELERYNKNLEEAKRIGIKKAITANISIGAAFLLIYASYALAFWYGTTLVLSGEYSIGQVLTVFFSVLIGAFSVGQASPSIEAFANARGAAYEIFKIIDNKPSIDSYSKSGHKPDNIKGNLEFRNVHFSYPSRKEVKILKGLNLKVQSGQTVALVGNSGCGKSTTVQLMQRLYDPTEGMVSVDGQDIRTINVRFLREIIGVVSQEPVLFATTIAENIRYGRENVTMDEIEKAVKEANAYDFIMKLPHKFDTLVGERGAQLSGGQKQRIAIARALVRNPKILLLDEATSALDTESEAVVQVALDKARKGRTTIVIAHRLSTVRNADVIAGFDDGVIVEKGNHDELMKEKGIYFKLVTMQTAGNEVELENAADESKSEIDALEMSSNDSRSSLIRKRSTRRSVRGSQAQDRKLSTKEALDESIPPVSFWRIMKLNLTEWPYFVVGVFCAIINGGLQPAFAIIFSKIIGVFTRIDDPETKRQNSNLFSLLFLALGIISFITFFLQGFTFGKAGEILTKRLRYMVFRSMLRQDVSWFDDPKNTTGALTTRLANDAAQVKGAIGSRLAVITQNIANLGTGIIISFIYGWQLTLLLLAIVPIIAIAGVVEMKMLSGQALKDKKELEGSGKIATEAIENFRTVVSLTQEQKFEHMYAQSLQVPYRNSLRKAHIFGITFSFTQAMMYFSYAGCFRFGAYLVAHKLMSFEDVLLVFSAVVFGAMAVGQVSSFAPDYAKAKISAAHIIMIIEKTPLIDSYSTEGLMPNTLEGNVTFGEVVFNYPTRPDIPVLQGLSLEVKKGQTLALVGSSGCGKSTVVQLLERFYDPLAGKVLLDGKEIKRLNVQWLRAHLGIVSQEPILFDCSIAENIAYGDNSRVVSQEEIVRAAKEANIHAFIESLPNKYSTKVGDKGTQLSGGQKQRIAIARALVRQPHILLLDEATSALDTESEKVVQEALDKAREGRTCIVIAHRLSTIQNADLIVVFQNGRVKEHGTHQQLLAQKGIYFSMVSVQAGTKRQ
Data set [3] is described as follows: Cytotoxicity against human HFE cells assessed as cell viability after 72 hrs by MTT assay. It is filed as cell-based.
In data set [4] the target is T1, ATP-dependent translocase ABCB1. Briefly: Inhibition of p-glycoprotein in human LCC6/MDR cells assessed as increase of paclitaxel-induced cytotoxicity at 200 nM after 72 hrs by SRB assay relative to control. It is filed as cell-based. The conditions noted are these: 0.2 µM.
The target is the same in data set [5]. Nature of the data set: Inhibition of p-glycoprotein-mediated rhodamine-123 efflux in human K562/p-gp cells at 0.5 uM after 1 hr by flow cytometry relative to tariquidar. It counts as cell-based. The conditions noted are these: 1 h, 0.5 µM.
A short description of data set [6]: Cytotoxicity against human CCD-18Co cells assessed as cell viability after 48 hrs by MTT assay. It counts as cell-based.
Data set [7] addresses Multidrug resistance-associated protein 1 (Homo sapiens, UniProt P33527). Nature of the data set: Inhibition of MRP1 (unknown origin)-mediated calcein-AM efflux expressed in HEK293/MRP1 cells at 0.5 uM after 1 hr by flow cytometry. It is filed as cell-based. Conditions: hek293/mrp1, 1 h.
Data set [8] in a line: Cytotoxicity against human LCC6 cells expressing p-glycoprotein at 200 nM after 72 hrs by SRB assay. It counts as cell-based. Conditions: lcc6, 72 h, 0.2 µM.
The test system of the next data set is HCT-116. Nature of the data set: Cytotoxicity against human HCT116 cells assessed as cell viability after 48 hrs by MTT assay. It is filed as cell-based. The conditions noted are these: HCT-116, 48 h.
Data set [9] in a line: Cytotoxicity against human SW620/AD300 cells assessed as cell viability after 48 hrs by MTT assay. It counts as cell-based. Conditions: SW-620, 48 h.
The subject of data set [10] is K562. Nature of the data set: Effect on rhodamine-123 efflux in wild type human K562 cells at 0.5 uM after 1 hr by flow cytometry. It is filed as ADME, cell-based. The conditions noted are these: k562, 1 h.
The nature of data set [11]: Potentiation of paclitaxel-induced cytotoxicity against human LCC6 cells at 200 nM after 72 hrs by SRB assay relative to control. It is filed as functional.
In data set [12] the test system is K562. Nature of the data set: Induction of UIC2 antibody binding to p-glycoprotein in human K562 cells at 0.5 uM preincubated for 10 mins followed by antibody addition measured after 45 mins by flow cytometry relative to tariquidar. It is filed as cell-based.
A further data set deals with Hepatocyte. Nature of the data set: Cytotoxicity against rat hepatocytes assessed as cell viability after 72 hrs by MTT assay. It is filed as cell-based. Conditions: Rattus norvegicus, Hepatocyte.

Sequence of Multidrug resistance-associated protein 1 (P33527 whole entry): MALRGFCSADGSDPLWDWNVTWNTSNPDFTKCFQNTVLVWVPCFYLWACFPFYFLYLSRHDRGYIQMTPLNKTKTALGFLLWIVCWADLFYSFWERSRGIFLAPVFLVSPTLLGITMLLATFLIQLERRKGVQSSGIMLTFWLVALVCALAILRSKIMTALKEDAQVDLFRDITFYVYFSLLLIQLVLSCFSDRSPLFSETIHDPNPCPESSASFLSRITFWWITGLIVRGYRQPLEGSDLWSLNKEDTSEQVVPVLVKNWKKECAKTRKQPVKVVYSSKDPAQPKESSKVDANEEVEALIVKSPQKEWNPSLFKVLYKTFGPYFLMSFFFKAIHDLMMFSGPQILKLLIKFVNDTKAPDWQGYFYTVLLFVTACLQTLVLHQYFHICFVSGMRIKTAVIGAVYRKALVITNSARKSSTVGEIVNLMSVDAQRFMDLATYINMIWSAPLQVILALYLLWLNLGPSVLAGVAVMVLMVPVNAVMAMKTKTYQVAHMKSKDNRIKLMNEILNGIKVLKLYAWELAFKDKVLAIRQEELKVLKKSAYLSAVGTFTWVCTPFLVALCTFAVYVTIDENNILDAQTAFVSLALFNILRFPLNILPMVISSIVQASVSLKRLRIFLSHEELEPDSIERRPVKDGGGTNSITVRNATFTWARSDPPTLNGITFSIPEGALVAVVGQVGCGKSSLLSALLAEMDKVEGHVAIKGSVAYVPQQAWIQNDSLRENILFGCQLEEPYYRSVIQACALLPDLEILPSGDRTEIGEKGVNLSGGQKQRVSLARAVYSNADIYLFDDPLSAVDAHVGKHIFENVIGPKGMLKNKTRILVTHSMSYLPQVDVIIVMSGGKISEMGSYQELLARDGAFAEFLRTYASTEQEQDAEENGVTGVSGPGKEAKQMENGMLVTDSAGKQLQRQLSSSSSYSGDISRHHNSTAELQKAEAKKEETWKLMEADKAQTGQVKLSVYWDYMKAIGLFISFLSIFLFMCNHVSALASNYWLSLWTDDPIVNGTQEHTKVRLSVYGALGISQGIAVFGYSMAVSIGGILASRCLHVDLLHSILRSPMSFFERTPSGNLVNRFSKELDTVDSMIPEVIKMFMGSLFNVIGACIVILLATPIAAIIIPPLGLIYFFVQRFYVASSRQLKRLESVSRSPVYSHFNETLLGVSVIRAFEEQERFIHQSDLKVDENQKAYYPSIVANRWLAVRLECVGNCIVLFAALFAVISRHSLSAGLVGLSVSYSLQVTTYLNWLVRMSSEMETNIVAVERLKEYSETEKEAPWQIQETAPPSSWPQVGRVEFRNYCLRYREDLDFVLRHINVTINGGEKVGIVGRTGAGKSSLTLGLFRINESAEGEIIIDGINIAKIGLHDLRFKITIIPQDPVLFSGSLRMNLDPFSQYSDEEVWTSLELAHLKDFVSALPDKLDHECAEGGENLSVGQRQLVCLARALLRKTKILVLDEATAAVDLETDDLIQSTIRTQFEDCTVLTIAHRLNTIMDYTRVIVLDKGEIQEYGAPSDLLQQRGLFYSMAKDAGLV

`COc1cc2c(cc1OC)CN(CCc1ccc(NC(=O)c3cc(OC)c(OC)cc3NS(=O)(=O)c3ccc(C(C)(C)C)cc3)cc1)CC2`: the IC50 with SW-620 is more than 100 µM; in data set [3], more than 5 µM; in data set [6], more than 100 µM; in the data set with HCT-116, more than 100 µM; in data set [9] it was more than 100 µM. Also, the Activity entry was “Non-toxic” in data set [1], “Non-toxic” in data set [8], “Non-toxic” in the data set on K562 [10] and 70.7% in the data set on K562 [12]. For the same molecule, the inhibition result in the data set filed under Homo sapiens was “Dose-dependent effect”. Moreover, the results for the “inhibition (INH)” value in data set [2], in data set [5] and in [7] were “Dose-dependent effect”, “Active” and “Not Active”, respectively. Besides, the “fold change (FC)” value in data set [4] was found to be 21; in [11], 1.
`COc1cc2c(cc1OC)CN(CCc1ccc(NC(=O)c3ccccc3NS(=O)(=O)c3ccc(Cl)cc3)cc1)CC2`: the IC50 with SW-620 was more than 100 µM; in [3], more than 5 µM; in [6] it was more than 100 µM; in the data set with HCT-116 it was more than 100 µM; in data set [9], more than 100 µM.
On to `COc1cc2c(cc1OC)CN(CCc1ccc(NC(=O)c3ccccc3NS(=O)(=O)c3ccccc3F)cc1)CC2`, for which the IC50 was more than 100 µM with SW-620; more than 100 µM in data set [3]; more than 100 µM in data set [6]; more than 100 µM in the data set with HCT-116; more than 100 µM in [9]; 100 µM in the data set on Hepatocyte. The “inhibition (INH)” value in data set [7] is recorded as “Not Active”.
For `COc1cc2c(cc1OC)CN(CCc1ccc(NC(=O)c3cc(OC)c(OC)cc3NS(=O)(=O)c3ccc(C)cc3)cc1)CC2`, the IC50 in the data set on SW-620 is more than 100 µM; in [3], more than 100 µM; in data set [6] it was more than 100 µM; with HCT-116, more than 100 µM; in data set [9], more than 100 µM; with Hepatocyte, 100 µM. Further, the “inhibition (INH)” value in [7] is given as “Not Active”.
With `COc1cc2c(cc1OC)CN(CCc1ccc(NC(=O)c3ccccc3NS(=O)(=O)c3ccccc3C(F)(F)F)cc1)CC2`, the IC50 with SW-620 is more than 100 µM; in data set [3] it was more than 100 µM; in data set [6] it was more than 100 µM; in the data set with HCT-116, more than 100 µM; in data set [9], more than 100 µM; with Hepatocyte, 100 µM. For the same molecule, in data set [7], the “inhibition (INH)” value is given as “Not Active”.
For `CCCS(=O)(=O)Nc1ccccc1C(=O)Nc1ccc(CCN2CCc3cc(OC)c(OC)cc3C2)cc1`, the IC50 (in the data set on SW-620; in data set [3]; in [6]; in the data set with HCT-116; in data set [9]) was more than 100 µM each time. The “inhibition (INH)” value in data set [7] is on record as “Not Active”.
As to `COc1cc2c(cc1OC)CN(CCc1ccc(NC(=O)c3ccccc3NS(=O)(=O)c3cccc4c(N(C)C)cccc34)cc1)CC2`, the half-maximal inhibitory concentration (IC50) (with SW-620; in data set [3]; in [6]; in the data set on HCT-116; in [9]) was more than 100 µM each time. Moreover, the “inhibition (INH)” value in data set [7] was “Not Active”.
With `COc1cc2c(cc1OC)CN(CCc1ccc(NC(=O)c3ccccc3NS(=O)(=O)c3c(C)cc(C)cc3C)cc1)CC2`, the IC50 was more than 100 µM in the data set with SW-620; more than 100 µM in data set [3]; more than 100 µM in data set [6]; more than 100 µM in the data set with HCT-116; more than 100 µM in [9]; 100 µM in the data set with Hepatocyte. Further, in data set [7], the “inhibition (INH)” value was “Not Active”.
`CCCCCCCCCCCC(=O)Nc1ccccc1C(=O)Nc1ccc(CCN2CCc3cc(OC)c(OC)cc3C2)cc1`: the IC50 (in the data set on SW-620; in data set [3]; in [6]; with HCT-116; in [9]) was more than 100 µM throughout. For the same molecule, the “inhibition (INH)” value in data set [7] is “Not Active”.
On to `COc1cc2c(cc1OC)CN(CCc1ccc(NC(=O)c3cc(OC)c(OC)cc3NS(=O)(=O)c3ccc(C(F)(F)F)cc3)cc1)CC2`, for which the IC50 in the data set on SW-620 is more than 100 µM; in [3], more than 100 µM; in [6] it was more than 100 µM; with HCT-116, 25 µM; in [9] it was more than 100 µM; with Hepatocyte, 50 µM. The “inhibition (INH)” value in data set [7] was “Not Active”.
Turning to `COc1cc2c(cc1OC)CN(CCc1ccc(NC(=O)c3ccccc3NS(=O)(=O)c3ccc(NC(C)=O)cc3)cc1)CC2`, the IC50 (in the data set with SW-620; in data set [3]; in data set [6]; in the data set with HCT-116; in data set [9]) was more than 100 µM in each case. In [7], the “inhibition (INH)” value is “Not Active”.
`COc1cc2c(cc1OC)CN(CCc1ccc(NC(=O)c3ccccc3NS(=O)(=O)c3ccc(C(F)(F)F)cc3)cc1)CC2`: the IC50 in the data set on SW-620 is more than 100 µM; in data set [3] it was more than 100 µM; in [6] it was more than 100 µM; in the data set on HCT-116, 25 µM; in data set [9], more than 100 µM; in the data set on Hepatocyte it was 50 µM. Besides, the “inhibition (INH)” value in data set [7] is “Not Active”.
For `COc1cc2c(cc1OC)CN(CCc1ccc(NC(=O)c3ccccc3NC(=O)OCC3c4ccccc4-c4ccccc43)cc1)CC2`, the IC50 (with SW-620; in [3]; in [6]; with HCT-116; in [9]) was more than 100 µM each time. Besides, in data set [7], the “inhibition (INH)” value is listed as “Not Active”.
Consider `COc1cc2c(cc1OC)CN(CCc1ccc(NC(=O)c3ccccc3NS(=O)(=O)c3ccc(F)cc3)cc1)CC2`, for which the IC50 (in the data set with SW-620; in [3]; in data set [6]; in the data set on HCT-116; in data set [9]) was more than 100 µM throughout. In addition, in data set [7], the “inhibition (INH)” value is “Not Active”.
For the molecule `COc1ccc(S(=O)(=O)Nc2ccccc2C(=O)Nc2ccc(CCN3CCc4cc(OC)c(OC)cc4C3)cc2)cc1`, the IC50 (in the data set on SW-620; in data set [3]; in data set [6]; in the data set with HCT-116; in [9]) was more than 100 µM throughout. The “inhibition (INH)” value in data set [7] is “Not Active”.
For `COc1cc2c(cc1OC)CN(CCc1ccc(NC(=O)c3ccccc3NS(=O)(=O)c3cc(Cl)ccc3Cl)cc1)CC2`, the IC50 is more than 100 µM in the data set on SW-620; more than 100 µM in data set [3]; more than 100 µM in data set [6]; 25 µM in the data set on HCT-116; more than 100 µM in [9]. The “inhibition (INH)” value in data set [7] is on record as “Not Active”.

The IC50 is the concentration that gives 50% inhibition.
